Experimental data reported in patent US11591341B2 (ALIGOS THERAPEUTICS, INC., priority 2019, dated 2023).

Tested on: HBV
Assay: HBV-DNA Antiviral Assay Using HepG2.117 Cells (intracellular HBV DNA by qPCR)
Format: cell-based, hepatitis B virus (genotype D)
Conditions: Hepatitis B virus, HepG2.117
Outline: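 HepG2.117 cells (genotype D HBV, Tet-off) were induced by doxycycline withdrawal and treated for 3 days with 9 concentrations in 4-fold dilution, 2% DMSO final. Intracellular HBV DNA was measured by qPCR against a standard curve, with ATPlite viability read in parallel. EC50, EC90 and CC50 came from fits against the DMSO control.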

## COc1ccc(C(C)NC(=O)c2c3n(c(=O)n2-c2ccc(-n4cccn4)cc2)CCN(C(=O)c2ccc(Br)c(Cl)c2)C3)c(F)c1 (racemic) [Example 413, 7-(4-bromo-3-chloro-benzoyl)-3-oxo-2-(4-pyrazol-1-ylphenyl)-N-[rac-(1R)-1-(2-fluoro-4-methoxy-phenyl)ethyl]-6,8-dihydro-5H-imidazo[1,5-a]pyrazine-1-carboxamide]
  EC50: < 100 nM

## COc1cc(Cl)c(-n2c(C(=O)NCc3ccccc3)c3n(c2=O)CCN(C(=O)c2ccc(Cl)c(Cl)c2)C3)c(Cl)c1 [Example 96, N-benzyl-7-(3,4-dichlorobenzoyl)-2-(2,6-dichloro-4-methoxy-phenyl)-3-oxo-6,8-dihydro-5H-imidazo[1,5-a]pyrazine-1-carboxamide]
  EC50: > 5000 nM

## C[C@@H](NC(=O)c1c2n(c(=O)n1-c1ccc(OC3CC3)cc1)C[C@H](C)N(C(=O)c1ccc(Br)c(Cl)c1)C2)c1ccccc1 (mixture of isomers) [Example 332, (6SR)-7-(4-bromo-3-chloro-benzoyl)-2-[4-(cyclopropoxy)phenyl]-6-methyl-3-oxo-N-[(1R)-1-phenylethyl]-6,8-dihydro-5H-imidazo[1,5-a]pyrazine-1-carboxamide]
  EC50: 100 to 500 nM

## COc1ccc(CNC(=O)c2c3n(c(=O)n2CCc2ccccc2)CCN(C(=O)c2ccc(Br)c(Cl)c2)C3)cc1 [Example 15, 7-(4-bromo-3-chlorobenzoyl)-N-[(4-methoxyphenyl)methyl]-3-oxo-2-(2-phenylethyl)-5H,6H,8H-imidazo[1,5-a]pyrazine-1-carboxamide]
  EC50: > 5000 nM

## COc1ccc(-n2c(C(=O)NCc3cc(OC)cc(OC)c3)c3n(c2=O)CCN(C(=O)c2ccc(Br)c(Cl)c2)C3)cc1 [Example 153, 7-(4-bromo-3-chloro-benzoyl)-N-[(3,5-dimethoxyphenyl)methyl]-2-(4-methoxyphenyl)-3-oxo-6,8-dihydro-5H-imidazo[1,5-a]pyrazine-1-carboxamide]
  EC50: 100 to 500 nM

## CO[C@@H]1CN(Cc2ccccc2)Cc2c3n(c(=O)n2C1)CCN(C(=O)c1ccc(Br)c(Cl)c1)C3 (stereo in doubt) [Example 309, rac-(11R)-13-benzyl-4-(4-bromo-3-choro-benzoyl)-11-methoxy-4,7,9,13-tetrazatricyclo[7.5.0.0^2,7]tetradec-1-ene-8,14-dione]
  EC50: 500 to 5000 nM

## C[C@@H](NC(=O)c1c2n(c(=O)n1-c1ccc(OCC(F)(F)F)cc1)CCN(C(=O)c1ccc(Br)c(Cl)c1)C2)c1ccc(OCC(N)=O)cc1-n1cccn1 (stereo in doubt) [Example 381, 7-(4-bromo-3-chloro-benzoyl)-3-oxo-N-[rac-(1R)-1-[4-(2-amino-2-oxo-ethoxy)-2-pyrazol-1-yl-phenyl]ethyl]-2-[4-(2,2,2-trifluoroethoxy)phenyl]-6,8-dihydro-5H-imidazo[1,5-a]pyrazine-1-carboxamide]
  EC50: > 5000 nM

## NC(=O)COc1ccc(CNC(=O)c2c3n(c(=O)n2-c2ccc(OCC(F)(F)F)cc2)CCN(C(=O)c2ccc(Br)c(Cl)c2)C3)c(-n2cccn2)c1 [Example 328, N-[[4-(2-amino-2-oxo-ethoxy)-2-pyrazol-1-yl-phenyl]methyl]-7-(4-bromo-3-chloro-benzoyl)-3-oxo-2-[4-(2,2,2-trifluoroethoxy)phenyl]-6,8-dihydro-5H-imidazo[1,5-a]pyrazine-1-carboxamide]
  EC50: 500 to 5000 nM

## O=C(NCc1ccccc1)c1c2n(c(=O)n1-c1ccc(-n3cc(F)cn3)cc1)CCN(C(=O)c1ccc(Br)c(Cl)c1)C2 [Example 427, N-benzyl-7-(4-bromo-3-chloro-benzoyl)-2-[4-(4-fluoropyrazol-1-yl)phenyl]-3-oxo-6,8-dihydro-5H-imidazo[1,5-a]pyrazine-1-carboxamide]
  EC50: 100 to 500 nM

## CCc1cc(OC)ccc1CNC(=O)c1c2n(c(=O)n1-c1ccc(OC)cc1)CCN(C(=O)c1ccc(Br)c(Cl)c1)C2 [Example 251, 7-(4-bromo-3-chloro-benzoyl)-N-[(2-ethyl-4-methoxy-phenyl)methyl]-2-(4-methoxyphenyl)-3-oxo-6,8-dihydro-5H-imidazo[1,5-a]pyrazine-1-carboxamide]
  EC50: 100 to 500 nM

## O=C(NCc1c(F)ccc2nccnc12)c1c2n(c(=O)n1-c1ccc(-n3cccn3)cc1)CCN(C(=O)c1ccc(Br)c(Cl)c1)C2 [Example 458, 7-(4-bromo-3-chloro-benzoyl)-N-[(6-fluoroquinoxalin-5-yl)methyl]-3-oxo-2-(4-pyrazol-1-ylphenyl)-6,8-dihydro-5H-imidazo[1,5-a]pyrazine-1-carboxamide]
  EC50: 100 to 500 nM

## COc1ccc(-n2c(C(=O)NCc3ccc(Cl)c(OC)c3)c3n(c2=O)CCN(C(=O)c2ccc(Cl)c(Cl)c2)C3)cc1 [Example 102, N-[(4-chloro-3-methoxy-phenyl)methyl]-7-(3,4-dichlorobenzoyl)-2-(4-methoxyphenyl)-3-oxo-6,8-dihydro-5H-imidazo[1,5-a]pyrazine-1-carboxamide]
  EC50: 500 to 5000 nM

## Cc1nc2c(CNC(=O)c3c4n(c(=O)n3-c3ccc(OCC(F)(F)F)cc3)CCN(C(=O)c3ccc(Br)c(Cl)c3)C4)cccc2o1 [Example 411, 7-(4-bromo-3-chloro-benzoyl)-N-[(2-methyl-1,3-benzoxazol-4-yl)methyl]-3-oxo-2-[4-(2,2,2-trifluoroethoxy)phenyl]-6,8-dihydro-5H-imidazo[1,5-a]pyrazine-1-carboxamide]
  EC50: 100 to 500 nM

## COc1ccc(-n2c(C(=O)NCc3ccc(Cl)cc3)c3n(c2=O)CCN(C(=O)c2ccc(Br)c(Cl)c2)C3)cc1 [Example 139, 7-(4-bromo-3-chloro-benozyl)-N-[(4-chlorophenyl)methyl]-2-(4-methoxyphenyl)-3-oxo-6,8-dihydro-5H-imidazo[1,5-a]pyrazine-1-carboxamide]
  EC50: 100 to 500 nM

## N#Cc1ccc(CNC(=O)c2c3n(c(=O)n2-c2ccc(OCC(F)(F)F)cc2)CCN(C(=O)c2ccc(Br)c(Cl)c2)C3)c(F)c1 [Example 287, 7-(4-bromo-3-chloro-benzoyl)-N-[(4-cyano-2-fluoro-phenyl)methyl]-3-oxo-2-[4-(2,2,2-trifluoroethoxy)phenyl]-6,8-dihydro-5H-imidazo[1,5-a]pyrazine-1-carboxamide]
  EC50: 500 to 5000 nM

## O=C(NCc1ccccc1)c1c2n(c(=O)n1-c1ccccc1)CCN(C(=O)c1ccc(Br)c(Cl)c1)C2 [Example 195, N-benzyl-7-(4-bromo-3-chloro-benzoyl)-3-oxo-2-phenyl-6,8-dihydro-5H-imidazo[1,5-a]pyrazine-1-carboxamide]
  EC50: 500 to 5000 nM

## COc1ccc(-n2c(C(=O)NCc3ccc(C(N)=O)cc3)c3n(c2=O)CCN(C(=O)c2ccc(Cl)c(Cl)c2)C3)cc1 [Example 104, N-[(4-carbamoylphenyl)methyl]-7-(3,4-dichlorobenzoyl)-2-(4-methoxyphenyl)-3-oxo-6,8-dihydro-5H-imidazo[1,5-a]pyrazine-1-carboxamide]
  EC50: > 5000 nM

## C[C@H](NC(=O)c1c2n(c(=O)n1-c1ccc(OC3CC3)cc1)CCN(C(=O)c1ccc(Br)c(Cl)c1)C2)c1ccc(OC(C)(C)C(N)=O)cc1F (stereo in doubt) [Example 338, 7-(4-bromo-3-chloro-benzoyl)-2-[4-(cyclopropoxy)phenyl]-3-oxo-N-[rac-(1S)-1-[4-(2-amino-1,1-dimethyl-2-oxo-ethoxy)-2-fluoro-phenyl]ethyl]-6,8-dihydro-5H-imidazo[1,5-a]pyrazine-1-carboxamide]
  EC50: 100 to 500 nM

## C[C@H](Oc1ccc([C@H](C)NC(=O)c2c3n(c(=O)n2-c2ccc(OCC(F)(F)F)cc2)CCN(C(=O)c2ccc(Br)c(Cl)c2)C3)c(F)c1)C(N)=O (stereo in doubt) [Example 362, 7-(4-bromo-3-chloro-benzoyl)-3-oxo-N-[rac-(1S)-1-[2-fluoro-4-[rac-(1S)-2-amino-1-methyl-2-oxo-ethoxy]phenyl]ethyl]-2-[4-(2,2,2-trifluoroethoxy)phenyl]-6,8-dihydro-5H-imidazo[1,5-a]pyrazine-1-carboxamide]
  EC50: 100 to 500 nM

## C[C@@H](NC(=O)c1c2n(c(=O)n1C)CCN(C(=O)c1ccc(Br)c(Cl)c1)C2)c1ccccc1 (stereo in doubt) [Example 113, 7-(4-bromo-3-chloro-benzoyl)-2-methyl-3-oxo-N-[rac-(1R)-1-phenylethyl]-6,8-dihydro-5H-imidazo[1,5-a]pyrazine-1-carboxamide]
  EC50: 500 to 5000 nM

## CC(C)Oc1ccc(-n2c(C(=O)NCc3ccccc3)c3n(c2=O)CCN([C@H](c2ccc(Br)c(Cl)c2)C(F)(F)F)C3)cc1 (racemic) [Example 240, N-benzyl-2-(4-isopropoxyphenyl)-3-oxo-7-[rac-(1R)-1-(4-bromo-3-chloro-phenyl)-2,2,2-trifluoro-ethyl]-6,8-dihydro-5H-imidazo[1,5-a]pyrazine-1-carboxamide]
  EC50: > 5000 nM

## C[C@@H](NC(=O)c1c2n(c(=O)n1-c1ccc(OCC(F)(F)F)cc1)CCN(C(=O)c1ccc(Br)c(Cl)c1)C2)c1ccc(OC(F)F)cc1F (stereo in doubt) [Example 317, 7-(4-bromo-3-chloro-benzoyl)-3-oxo-N-[rac-(1R)-1-[4-(difluoromethoxy)-2-fluoro-phenyl]ethyl]-2-[4-(2,2,2-trifluoroethoxy)phenyl]-6,8-dihydro-5H-imidazo[1,5-a]pyrazine-1-carboxamide]
  EC50: 500 to 5000 nM

## COc1ccc(CN2C[C@@H](O)Cn3c(c4n(c3=O)CCN(C(=O)c3ccc(Br)c(Cl)c3)C4)C2=O)cc1 (stereo in doubt) [Example 193, rac-(11R)-4-(4-bromo-3-chloro-benzoyl)-11-hydroxy-13-[(4-methoxyphenyl)methyl]-4,7,9,13-tetrazatricyclo[7.5.0.0^2,7]tetradec-1-ene-8,14-dione]
  EC50: 100 to 500 nM

## CC(C)Oc1ccc(-n2c(C(=O)NCc3ccc(CO)cc3)c3n(c2=O)CCN(C(=O)c2ccc(Br)c(Cl)c2)C3)cc1 [Example 221, 7-(4-bromo-3-chloro-benzoyl)-N-[[4-(hydroxymethyl)phenyl]methyl]-2-(4-isopropoxyphenyl)-3-oxo-6,8-dihydro-5H-imidazo[1,5-a]pyrazine-1-carboxamide]
  EC50: > 5000 nM
